{"source": "patent US10266544B2", "about": "“Aryl substituted aminomethyl spectinomycin analogs as antibacterial agents” (ST. JUDE CHILDREN'S RESEARCH HOSPITAL, INC., priority 2013, dated 2019)", "key": {"[1]": {"tested_on": "Staphylococcus aureus (ATCC 29213)", "test": "MIC determination, microbroth dilution", "type": "cell-based", "conditions": "ATCC29213; Staphylococcus aureus (ATCC 29213); read-out: MIC S.a."}, "Bacillus anthracis": {"tested_on": "Bacillus anthracis", "test": "microbe, parasite or virus in culture", "type": "cell-based", "conditions": "read-out: MIC B.a."}, "[2]": {"tested_on": "Bacillus anthracis, Sterne 34F2", "test": "microbe, parasite or virus in culture", "type": "cell-based", "conditions": "STERNE34F2, read-out: MIC B.a."}, "[3]": {"tested_on": "Neisseria gonorrhoeae (ATCC 49226)", "test": "Disc diffusion assay", "type": "cell-based", "conditions": "ATCC49226, 4 μg per disc, read-out: Zone of inhibition N.g."}, "[4]": {"tested_on": "Proteus mirabilis (ATCC 25933)", "test": "MIC determination, microbroth dilution", "type": "cell-based", "conditions": "ATCC25933"}, "[5]": {"tested_on": "Bacillus subtilis (ATCC 23857)", "test": "MIC determination, microbroth dilution", "type": "cell-based", "conditions": "ATCC23857; Bacillus subtilis (ATCC 23857); read-out: MIC B.s."}, "[6]": {"tested_on": "Pseudomonas aeruginosa (PA01)", "test": "MIC determination, microbroth dilution", "type": "cell-based"}, "[7]": {"tested_on": "Streptococcus pneumoniae (R6)", "test": "MIC determination, microbroth dilution", "type": "cell-based", "conditions": "Streptococcus pneumoniae (R6); read-out: MIC S. pn."}, "[8]": {"tested_on": "MRSA, Staphylococcus aureus (NRS70)", "test": "MIC determination, microbroth dilution", "type": "cell-based", "conditions": "Staphylococcus aureus (NRS70); read-out: MIC MRSA"}, "[9]": {"tested_on": "Neisseria meningitides (ATCC 13077)", "test": "Disc diffusion assay", "type": "cell-based", "conditions": "ATCC13077, 4 μg per disc, read-out: Zone of inhibition N.m."}, "[10]": {"tested_on": "Streptococcus pyogenes (ATCC 700294)", "test": "MIC determination, microbroth dilution", "type": "cell-based", "conditions": "ATCC700294; Streptococcus pyogenes (ATCC 700294); read-out: MIC S. py."}, "[11]": {"tested_on": "Escherichia coli (ATCC 700926)", "test": "MIC determination, microbroth dilution", "type": "cell-based", "conditions": "ATCC700926; Escherichia coli (ATCC 700926); read-out: MIC E.c."}, "[12]": {"tested_on": "Burkholderia cepacia (ATCC 25416)", "test": "MIC determination, microbroth dilution", "type": "cell-based", "conditions": "Burkholderia cepacia"}, "E. coli K12 ΔtolC": {"tested_on": "E. coli K12 ΔtolC", "test": "microbe, parasite or virus in culture", "type": "cell-based", "conditions": "Escherichia coli, read-out: MIC E.c. Δtolc"}, "[13]": {"tested_on": "acinetobacter baumannii (ATCC 19606)", "test": "MIC determination, microbroth dilution", "type": "cell-based", "conditions": "ATCC19606"}, "[14]": {"tested_on": "Haemophilus influenza (ATCC 49247)", "test": "microbe, parasite or virus in culture", "type": "cell-based", "conditions": "ATCC49247; Haemophilus influenza; 4 μg per disc; range of at least two experiments; read-out: Zone of inhibition H.i."}, "[15]": {"tested_on": "gram-positive and gram-negative bacteria", "type": "cell-based"}, "[16]": {"tested_on": "Klebsiella pneumoniae (ATCC 33495)", "test": "MIC determination, microbroth dilution", "type": "cell-based", "conditions": "ATCC33495"}, "[17]": {"tested_on": "Neisseria gonorrhoeae (ATCC 49226)", "test": "Agar MIC determination (Alamar Blue)", "type": "cell-based", "conditions": "ATCC49226, agar MIC, read-out: MIC N.g."}, "Moraxella catarrhalis": {"tested_on": "Moraxella catarrhalis", "test": "MIC determination (Table 6)", "type": "cell-based"}, "[18]": {"tested_on": "Proteus vulgaris (ATCC 33420)", "test": "MIC determination, microbroth dilution", "type": "cell-based", "conditions": "ATCC33420"}, "[19]": {"tested_on": "Stenotrophomonas maltophilia (ATCC 13637)", "test": "MIC determination, microbroth dilution", "type": "cell-based", "conditions": "ATCC13637; Stenotrophomonas maltophilia (ATCC 13637); read-out: MIC S.m."}, "[20]": {"tested_on": "Enterococcus faecalis (ATCC 33186)", "test": "MIC determination, microbroth dilution", "type": "cell-based", "conditions": "ATCC33186; Enterococcus faecalis (ATCC 33186); read-out: MIC E.f."}, "Listeria monocytogenes": {"tested_on": "Listeria monocytogenes", "test": "MIC determination (Table 6)", "type": "cell-based"}, "[21]": {"tested_on": "M. tuberculosis clinical isolates", "test": "microbe, parasite or virus in culture", "type": "cell-based", "conditions": "Mycobacterium tuberculosis, H37RV, read-out: MIC H37Rv"}, "Yersinia pestis": {"tested_on": "Yersinia pestis", "test": "microbe, parasite or virus in culture", "type": "cell-based", "conditions": "read-out: MIC Y.p."}, "S. pneumoniae D39x": {"tested_on": "S. pneumoniae D39x", "test": "Mouse challenge, mouse model of lung infection", "type": "in vivo", "conditions": "72 hours post challenge", "protocol": "Mice were treated with a 5 mg/kg dose b.i.d. of spectinomycin (indicated as “SPC” in the figure) or compound 2 (the compound number refers to the compound number and associated structure shown in Table 1), or vehicle. (Panel B) The bacterial burden of mice at 18 hours post-challenge with S. pneumoniae D39x. (Panel C) Representative bioluminescent images of mice at 72 hours post challenge.\nAll experimental animal protocols were approved by the St. Jude Children's Research Hospital Institutional Animal Care and Use Committee. Seven week old, female BalbC/J mice (Jackson Labs, Bar Harbor, Me.) we utilized in these studies. All mice were maintained in BSL2 facilities and all experiments were done under inhaled isoflurane (2.5%). Bacteria (strain D39x) were introduced by intranasal administration of 2×10^7 CFU in 25 μL PBS. Mice received no treatment, plasmalyte A (vehicle control), ampicillin (100 mg/kg), spectinomycin (50, 25, 5 mg/kg) or the respective compounds (50, 25, 5 mg/kg) at dosages indicated. Antibiotics were administered in a volume of 100 μL by subcutaneous […] starting at 18 hours post challenge, a time point when the mice have developed pneumonia and bacteria have translocated into the bloodstream. Mice were subsequently dosed every 12 hours until 96 hours post challenge. Mice were monitored daily for signs of infection and weight loss. Differences in time to death were compared via Kaplan-Meier survival estimates. Bacterial density in blood was quantified at 24, 48, 72, and 96 hours post infection via blood collection, serial dilution, and plating. Groups were then compared by Mann-Whitney to determine statistical significance. At 8 days following challenge, surviving mice were euthanized and bacterial loads in lungs determined by homogenization followed by serial dilution and plating. In all instances, surviving mice had completely cleared bacteria from both the lungs and the bloodstream by this time point.\nCompound 2 was tested for anti-pneumococcal activity in mice as described above. […]"}, "S. pneumoniae": {"tested_on": "S. pneumoniae", "test": "Resistance frequency determination and cross resistance of spontaneous mutants", "type": "cell-based, Streptococcus pneumoniae", "conditions": "cross resistance testing of 2 mutants"}}, "note": "Counter-ions that a name gives are not always drawn. Like-named read-outs stand apart in the source and are kept apart here.", "data": [{"smiles": "CN[C@@H]1[C@H](O)[C@H](NC)[C@H]2O[C@]3(O)[C@H](O[C@@H]2[C@H]1O)O[C@H](C)C[C@@]3(O)CNCCCc1ccccc1", "note": "[compound 13, 3′-(R)-3′-(phenylpropylaminomethyl)dihydrospectinomycin Trihydrochloride]", "values": [{"measurement": "MIC", "setting": "[1]", "result": 12.5, "unit": "µg/mL"}, {"measurement": "MIC", "setting": "Bacillus anthracis", "result": "3.1 to 6.3", "unit": "µg/mL"}, {"measurement": "MIC", "setting": "[2]", "result": "3.1 to 6.3", "unit": "µg/mL"}, {"measurement": "zone of inhibition at 4 µg/disc", "setting": "[3]", "result": 15, "unit": "mm"}, {"measurement": "MIC", "setting": "[4]", "result": "> 200", "unit": "µg/mL"}, {"measurement": "MIC", "setting": "[5]", "result": 6.3, "unit": "µg/mL"}, {"measurement": "MIC", "setting": "[6]", "result": 200, "unit": "µg/mL"}, {"measurement": "MIC", "setting": "[7]", "result": 3.1, "unit": "µg/mL"}, {"measurement": "MIC", "setting": "[8]", "result": "12.5 to 25", "unit": "µg/mL"}, {"measurement": "zone of inhibition at 4 µg/disc", "setting": "[9]", "result": 21, "unit": "mm"}, {"measurement": "MIC", "setting": "[10]", "result": 3.1, "unit": "µg/mL"}, {"measurement": "MIC", "setting": "[11]", "result": 12.5, "unit": "µg/mL"}, {"measurement": "MIC", "setting": "[12]; ATCC25416, read-out: MIC B.c., Burkholderia cepacia (ATCC 25416)", "result": "> 200", "unit": "µg/mL"}, {"measurement": "MIC", "setting": "[12]; ATCC25416, read-out: MIC B.c., Burkholderia cepacia, Table 6", "result": "> 200", "unit": "µg/mL"}, {"measurement": "MIC", "setting": "E. coli K12 ΔtolC", "result": 6.3, "unit": "µg/mL"}, {"measurement": "MIC", "setting": "[13]", "result": "> 200", "unit": "µg/mL"}, {"measurement": "zone of inhibition at 4 µg/disc", "setting": "[14]", "result": 14, "unit": "mm"}, {"measurement": "MIC relative to parent SPC", "setting": "[15]", "result": "~10 % of parent SPC"}, {"measurement": "MIC", "setting": "[16]", "result": 50, "unit": "µg/mL"}, {"measurement": "MIC", "setting": "[17]", "result": "12.5 to 25", "unit": "µg/mL"}, {"measurement": "MIC", "setting": "Moraxella catarrhalis", "result": 0.4, "unit": "µg/mL"}, {"measurement": "MIC", "setting": "[18]", "result": "≥ 200", "unit": "µg/mL"}, {"measurement": "MIC", "setting": "[19]", "result": "6.3 to 12.5", "unit": "µg/mL"}, {"measurement": "MIC", "setting": "[20]", "result": 6.3, "unit": "µg/mL"}, {"measurement": "MIC", "setting": "Listeria monocytogenes", "result": "1.6 to 3.1", "unit": "µg/mL"}, {"measurement": "MIC", "setting": "[21]", "result": 3.1, "unit": "µg/mL"}, {"measurement": "MIC", "setting": "Yersinia pestis", "result": 50, "unit": "µg/mL"}]}, {"smiles": "CN[C@@H]1[C@H](O)[C@H](NC)[C@H]2O[C@@]3(O)C(=O)C[C@@H](C)O[C@H]3O[C@@H]2[C@H]1O", "note": "[spectinomycin]", "values": [{"measurement": "bioluminescent images of mice", "setting": "S. pneumoniae D39x", "result": "systemic bacterial infection"}, {"measurement": "susceptibility of mutants resistant to 2", "setting": "S. pneumoniae", "result": "cross resistance"}]}]}
